# Test system: SH-SY5Y cells
# Experiment: Gene expression analysis by RNA sequencing in the presence of Aβ
# Type: cell-based, human
# Conditions: 5 μM, with Aβ
# From the text: The SH-S5Y5 neuroblastoma cell line was used for pre-clinical analysis. The SH-S5Y5 cell line is commonly used as a model for neurodegenerative disorders as the cells can be converted to various types of functional neurons by the addition of specific compounds (see, e.g., Xicoy et al., 2017, Molecular Neurodegeneration, 12: 10). In addition, the SH-S5Y5 cell line has been used widely in experimental neurological studies, including analysis of neuronal differentiation, metabolism, and function related to neurodegenerative processes, neurotoxicity and neuroprotection (see, e.g., Datki et al., 2003, Brain Research Bulletin, 62(3): 22-229; and Xie et al., 2010, Chinese Medical Journal, 123(8): 1086-1092).
# Total RNA was isolated from cells using TRIzol in accordance with the manufacturer's instructions (Invitrogen, Carlsbad, CA, USA). RNA concentration and quality was assessed using a NanoDrop spectrophotometer. Only samples with a 260/280 ratio of ≥1.8 were used for further analysis.
# Messenger RNA (mRNA) was purified from total RNA using poly-T oligo attached magnetic beads. After fragmentation, cDNA synthesis was performed in accordance with the manufacturer's instructions (Illumina, San Diego, CA, USA) to generate a directional and non-directional library. Libraries were checked with Qubit, real-time PCR was performed for quantification, and size distribution detection was performed using the Bioanalyzer. Quantified libraries were pooled and sequenced on an Illumina platform, according to the manufacturer's instructions.
# Raw reads were filtered and mapped to human reference genome (GRCh38/hg38) using HISAT2. Differential gene expression analysis was performed using R Package DEG seq2. […] Manual annotation of genes previously associated with specific neurodegenerative disorders and dementias was performed following a text mining analysis.
smiles,measurement,setting,value
COc1cc2c(cc1OC)C(=O)C(CC1CCN(Cc3ccccc3)CC1)C2 (stereo not shown) [Donepezil],MEG3 gene expression,"control 0.007, P 0.038",0.008
same,SAMD12 gene expression,"control 0.011, P 0.052",0.002
same,TNF gene expression,"control 0.032, P 0.046",0.026
same,ATXN7 gene expression,"control 0.042, P 0.014",0.150
same,PRICKLE2 gene expression,"control 0.060, P 0.007",0.085
same,IRF4 gene expression,"control 0.076, P 0.050",0.010
same,NRXN1 gene expression,"control 0.085, P 0.007",0.125
same,DNAH8 gene expression,"control 0.090, P 0.017",0.009
same,MME gene expression,"control 0.091, P 0.004",0.240
same,CLN3 gene expression,"control 0.092, P 0.051",0.093
same,DMD gene expression,"control 0.166, P 0.017",0.352
same,PPP2R2B gene expression,"control 0.179, P 0.056",0.146
same,PRSS23 gene expression,"control 0.196, P 0.022",0.193
same,ACE gene expression,"control 0.209, P 0.004",0.644
same,A2M gene expression,"control 0.242, P 0.006",0.122
same,TCIRG1 gene expression,"control 0.302, P 0.023",0.340
same,SLC1A1 gene expression,"control 0.314, P 0.003",0.482
same,NTNG1 gene expression,"control 0.327, P 0.009",0.249
same,NTRK2 gene expression,"control 0.329, P 0.015",0.700
same,PIH1D2 gene expression,"control 0.334, P 0.023",0.137
same,TUBA4A gene expression,"control 0.334, P 0.053",0.432
same,FGFR2 gene expression,"control 0.353, P 0.053",0.228
same,PDE11A gene expression,"control 0.366, P 0.020",0.416
same,TUNAR gene expression,"control 0.382, P 0.009",0.441
same,RETREG1 gene expression,"control 0.386, P 0.001",0.774
same,SORL1 gene expression,"control 0.455, P 0.009",0.683
same,DPY19L2P2 gene expression,"control 0.469, P 0.040",0.560
same,TRIM9 gene expression,"control 0.529, P 0.008",1.021
same,MATR3 gene expression,"control 0.559, P 0.001",0.511
same,SYCE2 gene expression,"control 0.567, P 0.049",0.604
same,PLA2G6 gene expression,"control 0.634, P 0.016",0.830
same,DEPDC5 gene expression,"control 0.656, P 0.020",0.683
same,CLN5 gene expression,"control 0.695, P 0.004",0.652
same,SLC9B1 gene expression,"control 0.735, P 0.053",0.713
same,PLAU gene expression,"control 0.799, P 0.005",1.790
same,ATXN1 gene expression,"control 0.851, P 0.002",1.152
same,IRAK1BP1 gene expression,"control 0.866, P 0.030",0.848
same,PRPH gene expression,"control 0.870, P 0.011",1.132
same,FHIT gene expression,"control 0.882, P 0.033",1.086
same,CFAP43 gene expression,"control 0.931, P 0.049",0.636
same,TMEM63A gene expression,"control 0.954, P 0.055",1.141
same,LRRC56 gene expression,"control 0.982, P 0.002",1.129
same,PARD3B gene expression,"control 0.986, P 0.002",1.168
same,ADCY5 gene expression,"control 1.228, P 0.036",1.662
same,DISC1 gene expression,"control 1.302, P 0.033",1.242
same,KCNT1 gene expression,"control 1.355, P 0.002",1.707
same,GAN gene expression,"control 1.529, P 0.018",1.495
same,DPP10 gene expression,"control 1.590, P 0.009",1.562
same,CHRNB4 gene expression,"control 1.624, P 0.018",2.920
same,MEF2C gene expression,"control 1.668, P 0.044",1.624
same,PACRG gene expression,"control 1.720, P 0.027",1.797
same,CDKL5 gene expression,"control 1.735, P 0.001",2.077
same,SIL1 gene expression,"control 1.736, P 0.021",1.886
same,PDLIM3 gene expression,"control 1.777, P 0.026",3.231
same,MT-TH gene expression,"control 1.782, P 0.047",0.388
same,MT-TD gene expression,"control 1.849, P 0.032",2.334
same,MMACHC gene expression,"control 1.874, P 0.018",1.731
same,ZFYVE26 gene expression,"control 1.909, P 0.032",1.930
same,TMLHE gene expression,"control 1.915, P 0.004",2.188
same,MAPT gene expression,"control 1.915, P 0.007",2.615
same,MSRA gene expression,"control 1.969, P 0.027",1.709
same,COQ2 gene expression,"control 1.970, P 0.055",1.406
same,PINK1-AS gene expression,"control 1.974, P 0.029",1.689
same,DLG2 gene expression,"control 1.977, P 0.041",2.816
same,FZD3 gene expression,"control 1.990, P 0.010",2.276
same,KATNAL2 gene expression,"control 2.005, P 0.000",2.056
same,ALMS1 gene expression,"control 2.170, P 0.003",2.220
same,HOTAIR gene expression,"control 2.219, P 0.008",1.982
same,SETD1B gene expression,"control 2.501, P 0.005",3.039
same,DRD2 gene expression,"control 2.532, P 0.031",4.790
same,SMARCA2 gene expression,"control 2.546, P 0.044",2.658
same,MFSD8 gene expression,"control 2.553, P 0.038",2.381
same,BDNF gene expression,"control 2.554, P 0.014",0.255
same,ABCA7 gene expression,"control 2.607, P 0.032",2.087
same,FSD1L gene expression,"control 2.639, P 0.002",2.451
same,ROGDI gene expression,"control 2.747, P 0.055",3.041
same,SPG7 gene expression,"control 2.790, P 0.011",2.471
same,MT-TW gene expression,"control 2.846, P 0.019",2.620
same,ATP1A3 gene expression,"control 2.847, P 0.021",3.739
same,ATL1 gene expression,"control 2.891, P 0.027",3.208
same,GM2A gene expression,"control 2.985, P 0.005",5.621
same,LYST gene expression,"control 3.000, P 0.053",2.468
same,APOL2 gene expression,"control 3.111, P 0.054",3.390
same,DCX gene expression,"control 3.114, P 0.003",3.488
same,IFT74 gene expression,"control 3.453, P 0.032",4.207
same,CLN8 gene expression,"control 3.580, P 0.014",2.847
same,RBM12 gene expression,"control 3.638, P 0.000",3.884
same,PRICKLE1 gene expression,"control 3.757, P 0.002",3.333
same,DPH1 gene expression,"control 3.762, P 0.040",3.962
same,TRAPPC9 gene expression,"control 3.776, P 0.021",4.781
same,EIF2B3 gene expression,"control 3.828, P 0.043",3.200
same,PDE10A gene expression,"control 3.855, P 0.030",3.147
same,TRAPPC2 gene expression,"control 3.872, P 0.053",4.012
same,C9orf72 gene expression,"control 3.921, P 0.001",8.663
same,TFEB gene expression,"control 4.181, P 0.001",2.618
same,PODXL gene expression,"control 4.194, P 0.011",4.847
same,ATP6V0A2 gene expression,"control 4.281, P 0.017",4.607
same,TTC21B gene expression,"control 4.351, P 0.026",4.248
same,VPS13D gene expression,"control 4.370, P 0.001",4.565
same,PIGQ gene expression,"control 4.438, P 0.008",4.983
same,PTPRM gene expression,"control 4.505, P 0.000",4.710
same,RHOBTB2 gene expression,"control 4.522, P 0.012",5.349
same,MRE11 gene expression,"control 4.546, P 0.036",4.436
same,EHMT1 gene expression,"control 4.566, P 0.010",4.445
same,CYLD gene expression,"control 4.607, P 0.036",3.887
same,PRDM8 gene expression,"control 4.779, P 0.013",3.461
same,RNF213 gene expression,"control 4.801, P 0.002",5.276
same,USP8 gene expression,"control 4.840, P 0.047",3.827
same,LIG3 gene expression,"control 4.935, P 0.007",5.232
same,MIAT gene expression,"control 5.041, P 0.014",6.814
same,JAM2 gene expression,"control 5.256, P 0.040",4.131
same,PSEN2 gene expression,"control 5.259, P 0.051",5.579
same,LMBRD1 gene expression,"control 5.367, P 0.022",5.309
same,NPC1 gene expression,"control 5.515, P 0.001",6.062
same,OPA1 gene expression,"control 5.517, P 0.001",9.622
same,VAPB gene expression,"control 5.611, P 0.005",5.235
same,ANXA11 gene expression,"control 5.661, P 0.025",6.974
same,MT-TI gene expression,"control 5.685, P 0.038",4.404
same,GOSR2 gene expression,"control 5.846, P 0.000",5.640
same,LDLR gene expression,"control 5.953, P 0.003",7.563
same,DDHD2 gene expression,"control 6.006, P 0.000",6.144
same,SREBF1 gene expression,"control 6.248, P 0.024",8.317
same,SLC25A24 gene expression,"control 6.258, P 0.036",5.685
same,CREB1 gene expression,"control 6.333, P 0.006",7.340
same,FIG4 gene expression,"control 6.430, P 0.051",6.116
same,BLMH gene expression,"control 6.516, P 0.013",6.896
same,APTX gene expression,"control 6.525, P 0.011",6.767
same,TPP1 gene expression,"control 6.541, P 0.009",7.171
same,ADAM10 gene expression,"control 6.563, P 0.019",5.824
same,MT-TA gene expression,"control 6.758, P 0.027",2.804
same,RAB33A gene expression,"control 6.793, P 0.003",6.922
same,MT-TC gene expression,"control 6.838, P 0.052",10.995
same,MECP2 gene expression,"control 6.880, P 0.033",5.530
same,SPAST gene expression,"control 6.944, P 0.053",5.978
same,TMEM106B gene expression,"control 7.108, P 0.005",6.957
same,CRAT gene expression,"control 7.227, P 0.031",9.692
same,CSTB gene expression,"control 7.261, P 0.008",9.549
same,IRF6 gene expression,"control 7.365, P 0.000",5.933
same,TRPM7 gene expression,"control 7.393, P 0.030",5.958
same,OTUD6B gene expression,"control 7.405, P 0.048",6.534
same,MAPK8 gene expression,"control 7.482, P 0.022",9.392
same,POLR1C gene expression,"control 7.525, P 0.034",6.234
same,CHCHD10 gene expression,"control 7.586, P 0.010",11.163
same,ATL3 gene expression,"control 7.656, P 0.030",6.616
same,WDR37 gene expression,"control 7.709, P 0.023",7.870
